Calls of active or inactive are those of the source. No cut-off for these calls is given here.
What was measured:
Staphylococcus aureus [1] = experiment: Antibacterial activity against Staphylococcus aureus Newman infected in Galleria mellonella assessed as reduction in melanization at 200 uM pretreated with compound followed by larvae infection measured after 24 hrs; format: functional, organism-based
Streptococcus pyogenes [2] = experiment: Covalent inhibition of Streptococcus pyogenes Sortase A N81 deletion mutant assessed as inactivation rate constant incubated for 60 mins
Sortase A [3] = biological target: T1, Sortase A (Staphylococcus aureus, UniProt Q9S446, N24DEL); experiment: Inhibition of Staphylococcus aureus Sortase A N24 deletion mutant transpeptidation using IsdA64-323 as substrate preincubated for 20 mins followed by substrate addition and measured after 1.5 hrs by SDS-PAGE analysis
Streptococcus pyogenes [4] = experiment: Irreversible inhibition of Streptococcus pyogenes Sortase A N81 deletion mutant preincubated with compound for 1 to 60 mins followed by substrate addition by FRET based assay; conditions: time 1-60 min, TDE = time-dependent effect
Staphylococcus aureus [5] = experiment: Inhibition of Staphylococcus aureus USA300 biofilm formation incubated for 14 hrs by Crystal violet staining based assay; format: functional, organism-based; conditions: dose 12.5-100 µM
[6] = Toxicity in Galleria mellonella assessed as change in color at 60 mg/kg measured after 120 hrs; format: organism-based; conditions: in vivo
Procathepsin L [7] = biological target: T2, Procathepsin L (Homo sapiens, UniProt P07711); experiment: Inhibition of cathepsin L (unknown origin) at 2 uM using Cbz-Phe-Arg-AMC as substrate preincubated for 5 mins followed by substrate addition by fluorescence based assay
Target sequence in this assay (P07711 114-333 limits assumed): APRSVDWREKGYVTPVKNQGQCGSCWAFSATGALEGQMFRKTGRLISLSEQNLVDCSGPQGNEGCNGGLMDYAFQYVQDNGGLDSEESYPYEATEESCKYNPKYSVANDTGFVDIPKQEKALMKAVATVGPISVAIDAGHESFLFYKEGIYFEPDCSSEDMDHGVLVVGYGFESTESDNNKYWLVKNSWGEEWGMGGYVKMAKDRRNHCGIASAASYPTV

Staphylococcus aureus [8] = experiment: Antibacterial activity against Staphylococcus aureus USA300 infected in Galleria mellonella assessed as increase in larvae survival at 30 mg/kg measured every 24 hrs for 5 days; format: functional; conditions: time 5 day
Cathepsin B [9] = biological target: T3, Cathepsin B (Homo sapiens, UniProt P07858); experiment: Inhibition of cathepsin B (unknown origin) using Cbz-Phe-Arg-AMC as substrate preincubated for 5 mins followed by substrate addition by fluorescence based assay
Procathepsin L [10] = biological target: T2, Procathepsin L; experiment: Inhibition of cathepsin L (unknown origin) using Cbz-Phe-Arg-AMC as substrate preincubated for 5 mins followed by substrate addition by fluorescence based assay
Target sequence in this assay (P07711 whole entry): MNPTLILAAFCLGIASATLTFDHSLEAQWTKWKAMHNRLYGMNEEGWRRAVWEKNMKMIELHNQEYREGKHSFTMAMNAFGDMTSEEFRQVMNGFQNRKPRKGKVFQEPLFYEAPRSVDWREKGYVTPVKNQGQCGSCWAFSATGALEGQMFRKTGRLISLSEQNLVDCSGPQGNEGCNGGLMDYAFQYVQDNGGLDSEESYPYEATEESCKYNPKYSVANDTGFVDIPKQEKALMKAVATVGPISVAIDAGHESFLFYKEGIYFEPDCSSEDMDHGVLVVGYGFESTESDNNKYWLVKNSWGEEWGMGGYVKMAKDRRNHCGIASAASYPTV

[11] = Covalent inhibition of Streptococcus pyogenes Sortase A N81 deletion mutant assessed as inactivation constant incubated for 60 mins
Staphylococcus aureus [12] = experiment: Antivirulence activity against Staphylococcus aureus Newman assessed as reduction in abundance of Sbi at 6.25 to 100 uM by Western blotting analysis; format: functional, organism-based; conditions: dose 6.25-100 µM
[13] = Toxicity in Galleria mellonella larvae assessed as effect on survival at 60 mg/kg measured after 120 hrs; format: organism-based; conditions: in vivo
Streptococcus pyogenes [14] = experiment: Inhibition of Streptococcus pyogenes Sortase A N81 deletion mutant transpeptidation assessed as thermal stabilization by measuring change in melting temperature at 80 uM incubated for 15 mins by Nano-DSF assay
Sortase A [15] = biological target: T1, Sortase A; experiment: Covalent inhibition of Staphylococcus aureus sortase A N24 deletion mutant assessed as inactivation constant incubated for 60 mins
[16] = tested on: Sortase A (Staphylococcus aureus), Q9S446 [UNDEFINED MUTATION]; experiment: Covalent inhibition of Staphylococcus aureus sortase A N24 deletion mutant assessed as inactivation rate constant incubated for 60 mins
[17] = tested on: Sortase A (Staphylococcus aureus), Q9S446 [UNDEFINED MUTATION]; experiment: Irreversible inhibition of Staphylococcus aureus sortase A N24 deletion mutant preincubated with compound for 1 to 60 mins followed by substrate addition by FRET based assay; conditions: time 1-60 min, TDE = time-dependent effect
Staphylococcus aureus [18] = experiment: Antivirulence activity against Staphylococcus aureus Newman assessed as reduction in abundance of anchored SpA in bacterial envelope by Western blotting analysis; format: functional, organism-based; conditions: dose 6.25-100 µM
Streptococcus pyogenes [19] = experiment: Covalent inhibition of Streptococcus pyogenes Sortase A N81 deletion mutant assessed as ratio of Kinact to Ki incubated for 60 mins
[20] = tested on: Sortase A (Staphylococcus aureus), Q9S446 [UNDEFINED MUTATION]; experiment: Inhibition of Staphylococcus aureus Sortase A N24 deletion mutant transpeptidation assessed as thermal stabilization by measuring change in melting temperature at 80 uM incubated for 15 mins by Nano-DSF assay
Cathepsin B [21] = biological target: T3, Cathepsin B; experiment: Inhibition of cathepsin B (unknown origin) at 2 uM using Cbz-Phe-Arg-AMC as substrate preincubated for 5 mins followed by substrate addition by fluorescence based assay
Staphylococcus aureus [22] = experiment: Antibacterial activity against Staphylococcus aureus Newman assessed as reduction in bacterial growth at 100 uM incubated for 14 hrs by microplate reader assay; format: functional, organism-based
Staphylococcus aureus [23] = experiment: Bactericidal activity against Staphylococcus aureus Newman assessed as reduction in bacterial growth incubated for 16 to 18 hrs; format: functional; conditions: time 16-18 hrs
[24] = Toxicity in Galleria mellonella larvae assessed as change in appearance at 60 mg/kg measured after 120 hrs; format: organism-based; conditions: in vivo
Staphylococcus aureus [25] = experiment: Antibacterial activity against Staphylococcus aureus USA300 assessed as reduction in bacterial growth at 100 uM incubated for 14 hrs by microplate reader assay; format: functional, organism-based
Staphylococcus aureus [26] = experiment: Antibacterial activity against Staphylococcus aureus Newman infected in Galleria mellonella assessed as increase in larvae survival at 30 mg/kg measured every 24 hrs for 5 days; format: functional; conditions: time 5 day
Staphylococcus aureus [27] = experiment: Inhibition of Staphylococcus aureus Newman biofilm formation incubated for 14 hrs by Crystal violet staining based assay; format: functional, organism-based; conditions: dose 12.5-100 µM
[28] = tested on: Sortase A (Staphylococcus aureus), Q9S446 [UNDEFINED MUTATION]; experiment: Covalent inhibition of Staphylococcus aureus sortase A N24 deletion mutant assessed as ratio of Kinact to Ki incubated for 60 mins
[29] = Inhibition of Streptococcus pyogenes Sortase A N81 deletion mutant transpeptidation using IsdA64-323 as substrate preincubated for 20 mins followed by substrate addition and measured after 1.5 hrs by SDS-PAGE analysis
Sortase A [30] = biological target: T1, Sortase A; experiment: Inhibition of Staphylococcus aureus sortase A N24 deletion mutant using Abz-LPATG-Dnp as substrate preincubated for 20 mins followed by substrate addition by FRET assay
Staphylococcus aureus [31] = experiment: Antibacterial activity against Staphylococcus aureus USA300 infected in Galleria mellonella assessed as reduction in melanization at 200 uM pretreated with compound followed by larvae infection measured after 24 hrs; format: functional, organism-based

## O=C1NC(=O)C(=C/C=C/c2ccc(OCc3ccc(F)cc3)cc2)C(=O)N1
Staphylococcus aureus [1]
  Activity: Active
Streptococcus pyogenes [2]
  Kinact: 1170 min⁻¹
Sortase A [3]
  IC50: 5200 nM
Streptococcus pyogenes [4]
  inhibition: Tde
Staphylococcus aureus [5]
  inhibition: Dose-Dependent Effect
[6]
  Activity: Non-Toxic
Procathepsin L [7]
  inhibition: Active
Staphylococcus aureus [8]
  Activity: 40%
Cathepsin B [9]
  IC50: 36.1 nM
Procathepsin L [10]
  IC50: 39.7 nM
[11]
  Ki: 5400 nM
Staphylococcus aureus [12]
  Activity: Active
[13]
  Activity: Non-Toxic
Streptococcus pyogenes [14]
  ΔTm: 9.3 °C
Sortase A [15]
  Ki: 1600 nM
[16]
  Kinact: 130 min⁻¹
[17]
  inhibition: Tde
Staphylococcus aureus [18]
  Activity: Active
Streptococcus pyogenes [19]
  Ratio: 81.1 µM⁻¹ min⁻¹
[20]
  ΔTm: 4.5 °C
Cathepsin B [21]
  inhibition: Active
Staphylococcus aureus [22]
  Activity: inactive
Staphylococcus aureus [23]
  MIC: > 128 µg/mL
[24]
  Activity: Non-Toxic
Staphylococcus aureus [25]
  Activity: inactive
Staphylococcus aureus [26]
  Activity: 60%
Staphylococcus aureus [27]
  inhibition: Dose-Dependent Effect
[28]
  Ratio: 216 µM⁻¹ min⁻¹
[29]
  IC50: 4900 nM
Sortase A [30]
  IC50: 600 nM
Staphylococcus aureus [31]
  Activity: Active

Reference: ChEMBL document CHEMBL5537161, “Structure-Guided Design, Synthesis, and Antivirulence Assessment of Covalent Staphylococcus aureus Sortase A Inhibitors” (J Med Chem, 2024)
